Assay results from US20220340633A1 (Adepthera LLC, priority 2016, published 2022).
Entries after “also recorded” stand apart in the source; their conditions may differ. Positions of bridges follow the written chain, without caps; N, C: chain ends. Non-standard residues stand in square brackets, D forms with d. Residues, ends and D or L forms follow the SMILES beside them. *: point of attachment. Palmitoyl = CCCCCCCCCCCCCCCC(=O)*; AEEA = NCCOCCOCC(=O)O

Experiments:
[1] = test system: primary human lymphatic endothelia cells (HLEC); assay: HLEC survival in medium with 0.1% FBS, MTS assay; details: 30, 100, and 300 nM, 72 hrs
Method: The cells were cultured for 72 hrs, and cell viability was assayed with the MTS assay (Promega).

CLR/RAMP2 receptor = biological target: T1, CLR/RAMP2 receptor (Homo sapiens, UniProt O60895+Q16602); assay: CLR/RAMP2 arrestin receptor activation assay (agonist); format: cell-based; details: CHO-K1, read-out: CLR/RAMP 2 Max Activity % of positive control, CHO-K1 cells; % of positive control (ADM)
T1 construct: host or cells: CHO-K1 cells
T1 sequence (Q16602 23-461): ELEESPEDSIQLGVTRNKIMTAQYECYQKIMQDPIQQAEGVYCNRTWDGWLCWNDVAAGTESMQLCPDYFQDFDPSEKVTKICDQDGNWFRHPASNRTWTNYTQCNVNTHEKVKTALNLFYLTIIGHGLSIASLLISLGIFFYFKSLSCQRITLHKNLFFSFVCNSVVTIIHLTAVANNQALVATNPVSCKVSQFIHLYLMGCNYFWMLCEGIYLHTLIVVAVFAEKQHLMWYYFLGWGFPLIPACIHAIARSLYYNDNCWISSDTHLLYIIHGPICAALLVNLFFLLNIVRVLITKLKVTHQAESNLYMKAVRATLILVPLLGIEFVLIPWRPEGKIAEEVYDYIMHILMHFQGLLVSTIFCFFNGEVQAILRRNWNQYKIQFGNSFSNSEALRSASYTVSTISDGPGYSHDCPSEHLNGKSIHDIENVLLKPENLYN
T1 sequence (O60895 43-175): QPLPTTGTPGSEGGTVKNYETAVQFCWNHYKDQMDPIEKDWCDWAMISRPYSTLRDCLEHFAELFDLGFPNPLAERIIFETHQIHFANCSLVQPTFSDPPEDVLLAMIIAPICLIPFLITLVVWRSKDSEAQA

CLR/RAMP1 receptor = CLR/RAMP1 receptor (Homo sapiens, UniProt O60894+Q16602); assay: CLR/RAMP1 cAMP receptor activation assay (agonist); format: cell-based; set-up: host or cells: 1321N1 cells; details: 1321-N1, read-out: CLR/RAMP 1 Max Activity % of positive control, 1321N1 cells; % of positive control (β-CGRP)
Chain of CLR/RAMP1 receptor (Q16602 23-461): as the sequence (Q16602 23-461) above
Chain of CLR/RAMP1 receptor (O60894 27-148): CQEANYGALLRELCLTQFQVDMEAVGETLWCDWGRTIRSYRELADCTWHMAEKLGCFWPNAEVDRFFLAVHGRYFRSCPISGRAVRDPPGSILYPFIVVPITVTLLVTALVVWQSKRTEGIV
Method: Using a receptor activation assay, the dose-dependent stimulatory response of peptide agonists of the present invention on a CLR/RAMP1 receptor, a CLR/RAMP2, or a CLR/RAMP3 receptor complex was determined. A cell line carrying the recombinant CLR/RAMP1, CLR/RAMP2, or a CLR/RAMP3 receptor was employed in the assay. Peptide agonist activities were tested, in duplicate, at 10 different concentrations, starting with 1.0 μM and serially diluted 3-fold, in DMSO. […] The CLR/RAMP1 cAMP, CLR/RAMP2 arrestin assays, and CLR/RAMP3 cAMP (DiscoveRx, Fremont, Calif.) were used.

Structure (SMILES) | HLEC survival (in words) [1] | Emax (CLR/RAMP2 receptor) [%] | Emax (CLR/RAMP1 receptor) [%]
CCCCCCCCCCCCCCCC(=O)N[C@@H](CCCCN)C(=O)N[C@H](C(=O)N[C@@H](CCCCN)C(=O)N[C@@H](CCCCN)C(=O)N[C@H](C(=O)N[C@@H](CC(C)C)C(=O)N[C@@H](CCCNC(=N)N)C(=O)N[C@H](C(=O)NCC(=O)N[C@H]1CSSC[C@@H](C(=O)N[C@H](C(=O)N[C@H](C(=O)N[C@@H](CCC(N)=O)C(=O)N[C@@H](CCCCN)C(=O)N[C@@H](CC(C)C)C(=O)N[C@@H](C)C(=O)N[C@@H](Cc2c[nH]cn2)C(=O)N[C@@H](CCC(N)=O)C(=O)N[C@H](C(=O)N[C@@H](Cc2ccc(O)cc2)C(=O)N[C@@H](CCC(N)=O)C(=O)N[C@@H](Cc2ccccc2)C(=O)N[C@H](C(=O)N[C@@H](CC(=O)O)C(=O)N[C@@H](CCCCN)C(=O)N[C@@H](CC(=O)O)C(=O)N[C@@H](CCCCN)C(=O)N[C@@H](CC(=O)O)C(=O)N[C@@H](CC(N)=O)C(=O)N[C@@H](CO)C(=O)N[C@@H](C)C(=O)N2CCC[C@H]2C(=O)N[C@H](C(=O)N[C@@H](CC(=O)O)C(=O)N2CCC[C@H]2C(=O)N[C@@H](CO)C(=O)N[C@@H](CO)C(=O)N2CCC[C@H]2C(=O)N[C@@H](Cc2c[nH]cn2)C(=O)N[C@@H](CO)C(=O)N[C@@H](Cc2ccc(O)cc2)C(N)=O)C(C)C)[C@@H](C)O)[C@@H](C)CC)C(C)C)[C@@H](C)O)NC(=O)[C@H]([C@@H](C)O)NC(=O)CNC(=O)[C@H](Cc2ccccc2)NC(=O)[C@H](CCCNC(=N)N)NC1=O)[C@@H](C)O)[C@@H](C)O)[C@@H](C)O [SEQ ID NO: 38] | dose-dependently stimulated; also recorded: significantly promote | – | –
CCCCCCCCCCCCCCCC(=O)N[C@@H](CCCCN)C(=O)NCC(=O)N[C@H]1CSSC[C@@H](C(=O)N[C@H](C(=O)N[C@H](C(=O)N[C@@H](CCC(N)=O)C(=O)N[C@@H](CCCCN)C(=O)N[C@@H](CC(C)C)C(=O)N[C@@H](C)C(=O)N[C@@H](Cc2c[nH]cn2)C(=O)N[C@@H](CCC(N)=O)C(=O)N[C@H](C(=O)N[C@@H](Cc2ccc(O)cc2)C(=O)N[C@@H](CCC(N)=O)C(=O)N[C@@H](Cc2ccccc2)C(=O)N[C@H](C(=O)N[C@@H](CC(=O)O)C(=O)N[C@@H](CCCCN)C(=O)N[C@@H](CC(=O)O)C(=O)N[C@@H](CCCCN)C(=O)N[C@@H](CC(=O)O)C(=O)N[C@@H](CC(N)=O)C(=O)N[C@@H](CO)C(=O)N[C@@H](C)C(=O)N2CCC[C@H]2C(=O)N[C@H](C(=O)N[C@@H](CC(=O)O)C(=O)N2CCC[C@H]2C(=O)N[C@@H](CO)C(=O)N[C@@H](CO)C(=O)N2CCC[C@H]2C(=O)N[C@@H](Cc2c[nH]cn2)C(=O)N[C@@H](CO)C(=O)N[C@@H](Cc2ccc(O)cc2)C(N)=O)C(C)C)[C@@H](C)O)[C@@H](C)CC)C(C)C)[C@@H](C)O)NC(=O)[C@H]([C@@H](C)O)NC(=O)CNC(=O)[C@H](Cc2ccccc2)NC(=O)[C@H](CCCNC(=N)N)NC1=O [SEQ ID NO: 30] | dose-dependently stimulated; also recorded: significantly promote | – | –
CCCCCCCCCCCCCCCC(=O)NCCCC[C@H](NC(C)=O)C(=O)NCC(=O)N[C@H]1CSSC[C@@H](C(=O)N[C@H](C(=O)N[C@H](C(=O)N[C@@H](CCC(N)=O)C(=O)N[C@@H](CCCCN)C(=O)N[C@@H](CC(C)C)C(=O)N[C@@H](C)C(=O)N[C@@H](Cc2c[nH]cn2)C(=O)N[C@@H](CCC(N)=O)C(=O)N[C@H](C(=O)N[C@@H](Cc2ccc(O)cc2)C(=O)N[C@@H](CCC(N)=O)C(=O)N[C@@H](Cc2ccccc2)C(=O)N[C@H](C(=O)N2CCC[C@H]2C(=O)N[C@@H](C)C(=O)NCC(=O)N[C@@H](CCCNC(=N)N)C(=O)N[C@@H](CCC(N)=O)C(=O)N[C@@H](CC(=O)O)C(=O)N[C@@H](CO)C(=O)N[C@@H](C)C(=O)N2CCC[C@H]2C(=O)N[C@H](C(=O)N[C@@H](CC(=O)O)C(=O)N2CCC[C@H]2C(=O)N[C@@H](CO)C(=O)N[C@@H](CO)C(=O)N2CCC[C@H]2C(=O)N[C@@H](Cc2c[nH]cn2)C(=O)N[C@@H](CO)C(=O)N[C@@H](Cc2ccc(O)cc2)C(N)=O)C(C)C)[C@@H](C)O)[C@@H](C)CC)C(C)C)[C@@H](C)O)NC(=O)[C@H]([C@@H](C)O)NC(=O)CNC(=O)[C@H](Cc2ccccc2)NC(=O)[C@H](CCCNC(=N)N)NC1=O [SEQ ID NO: 33] | dose-dependently stimulated; also recorded: significantly promote | – | –
CC[C@H](C)[C@H](NC(=O)[C@H](CCC(N)=O)NC(=O)[C@H](Cc1c[nH]cn1)NC(=O)[C@H](C)NC(=O)[C@H](CC(C)C)NC(=O)[C@H](CCCCN)NC(=O)[C@H](CCC(N)=O)NC(=O)[C@@H](NC(=O)[C@@H](NC(=O)[C@@H]1CSSC[C@H](NC(=O)CNC(=O)[C@H](CCCCN)NC(C)=O)C(=O)N[C@@H](CCCNC(=N)N)C(=O)N[C@@H](Cc2ccccc2)C(=O)NCC(=O)N[C@@H]([C@@H](C)O)C(=O)N1)[C@@H](C)O)C(C)C)C(=O)N[C@@H](Cc1ccc(O)cc1)C(=O)N[C@@H](CCC(N)=O)C(=O)N[C@@H](Cc1ccccc1)C(=O)N[C@H](C(=O)N[C@@H](CC(=O)O)C(=O)N[C@@H](CCCCN)C(=O)N[C@@H](CC(=O)O)C(=O)N[C@@H](CCCCN)C(=O)N[C@@H](CC(=O)O)C(=O)N[C@@H](CC(N)=O)C(=O)N[C@@H](CO)C(=O)N[C@@H](C)C(=O)N1CCC[C@H]1C(=O)N[C@H](C(=O)N[C@@H](CC(=O)O)C(=O)N1CCC[C@H]1C(=O)N[C@@H](CO)C(=O)N[C@@H](CO)C(=O)N1CCC[C@H]1C(=O)N[C@@H](Cc1c[nH]cn1)C(=O)N[C@@H](CO)C(=O)N[C@@H](Cc1ccc(O)cc1)C(N)=O)C(C)C)[C@@H](C)O [SEQ ID NO: 59] | minimal effects; also recorded: negligible effects | – | –
CCCCCCCCCCCCCCCC(=O)NCCCC[C@H](NC(=O)COCCOCCN)C(=O)N[C@H]1CSSC[C@@H](C(=O)N[C@H](C(=O)N[C@H](C(=O)N[C@@H](CCC(N)=O)C(=O)N[C@@H](CCCCN)C(=O)N[C@@H](CC(C)C)C(=O)N[C@@H](C)C(=O)N[C@@H](Cc2c[nH]cn2)C(=O)N[C@@H](CCC(N)=O)C(=O)N[C@H](C(=O)N[C@@H](Cc2ccc(O)cc2)C(=O)N[C@@H](CCC(N)=O)C(=O)N[C@@H](Cc2ccccc2)C(=O)N[C@H](C(=O)N[C@@H](CC(=O)O)C(=O)N[C@@H](CCCCN)C(=O)N[C@@H](CC(=O)O)C(=O)N[C@@H](CCCCN)C(=O)N[C@@H](CC(=O)O)C(=O)N[C@@H](CC(N)=O)C(=O)N[C@@H](CO)C(=O)N[C@@H](C)C(=O)N2CCC[C@H]2C(=O)N[C@H](C(=O)N[C@@H](CC(=O)O)C(=O)N2CCC[C@H]2C(=O)N[C@@H](CO)C(=O)N[C@@H](CO)C(=O)N2CCC[C@H]2C(=O)N[C@@H](Cc2c[nH]cn2)C(=O)N[C@@H](CO)C(=O)N[C@@H](Cc2ccc(O)cc2)C(N)=O)C(C)C)[C@@H](C)O)[C@@H](C)CC)C(C)C)[C@@H](C)O)NC(=O)[C@H]([C@@H](C)O)NC(=O)CNC(=O)[C@H](Cc2ccccc2)NC(=O)[C@H](CCCNC(=N)N)NC1=O [SEQ ID NO: 43] (H-[AEEA]K(Palmitoyl)CRFGTCTVQKLAHQIYQFTDKDKDNSAPVDPSSPHSY-NH2; disulfide 3-8) | – | 30 | 39
CCCCCCCCCCCCCCCC(=O)NCCCC[C@H](NC(=O)[C@@H](NC(=O)COCCOCCN)[C@@H](C)O)C(=O)N[C@@H](CCCCN)C(=O)N[C@H](C(=O)N[C@@H](CC(C)C)C(=O)N[C@@H](CCCNC(=N)N)C(=O)N[C@H](C(=O)NCC(=O)N[C@H]1CSSC[C@@H](C(=O)N[C@H](C(=O)N[C@H](C(=O)N[C@@H](CCC(N)=O)C(=O)N[C@@H](CCCCN)C(=O)N[C@@H](CC(C)C)C(=O)N[C@@H](C)C(=O)N[C@@H](Cc2c[nH]cn2)C(=O)N[C@@H](CCC(N)=O)C(=O)N[C@H](C(=O)N[C@@H](Cc2ccc(O)cc2)C(=O)N[C@@H](CCC(N)=O)C(=O)N[C@@H](Cc2ccccc2)C(=O)N[C@H](C(=O)N[C@@H](CC(=O)O)C(=O)N[C@@H](CCCCN)C(=O)N[C@@H](CC(=O)O)C(=O)N[C@@H](CCCCN)C(=O)N[C@@H](CC(=O)O)C(=O)N[C@@H](CC(N)=O)C(=O)N[C@H](C(=O)N[C@@H](C)C(=O)N2CCC[C@H]2C(=O)N[C@H](C(=O)N[C@@H](CC(=O)O)C(=O)N2CCC[C@H]2C(=O)N[C@@H](CO)C(=O)N[C@@H](CO)C(=O)N2CCC[C@H]2C(=O)N[C@@H](Cc2c[nH]cn2)C(=O)N[C@@H](CO)C(=O)N[C@@H](Cc2ccc(O)cc2)C(N)=O)C(C)C)C(C)C)[C@@H](C)O)[C@@H](C)CC)C(C)C)[C@@H](C)O)NC(=O)[C@H]([C@@H](C)O)NC(=O)CNC(=O)[C@H](Cc2ccccc2)NC(=O)[C@H](CCCNC(=N)N)NC1=O)[C@@H](C)O)[C@@H](C)O [SEQ ID NO: 42] | – | 76 | 56
CCCCCCCCCCCCCCCC(=O)NCCCC[C@H](NC(=O)COCCOCCN)C(=O)NCC(=O)N[C@H]1CSSC[C@@H](C(=O)N[C@H](C(=O)N[C@H](C(=O)N[C@@H](CCC(N)=O)C(=O)N[C@@H](CCCCN)C(=O)N[C@@H](CC(C)C)C(=O)N[C@@H](C)C(=O)N[C@@H](Cc2c[nH]cn2)C(=O)N[C@@H](CCC(N)=O)C(=O)N[C@H](C(=O)N[C@@H](Cc2ccc(O)cc2)C(=O)N[C@@H](CCC(N)=O)C(=O)N[C@@H](Cc2ccccc2)C(=O)N[C@H](C(=O)N[C@@H](CC(=O)O)C(=O)N[C@@H](CCCCN)C(=O)N[C@@H](CC(=O)O)C(=O)N[C@@H](CCCCN)C(=O)N[C@@H](CC(=O)O)C(=O)N[C@@H](CC(N)=O)C(=O)N[C@H](C(=O)N[C@@H](C)C(=O)N2CCC[C@H]2C(=O)N[C@H](C(=O)N[C@@H](CC(=O)O)C(=O)N2CCC[C@H]2C(=O)N[C@@H](CO)C(=O)N[C@@H](CO)C(=O)N2CCC[C@H]2C(=O)N[C@@H](Cc2c[nH]cn2)C(=O)N[C@@H](CO)C(=O)N[C@@H](Cc2ccc(O)cc2)C(N)=O)C(C)C)C(C)C)[C@@H](C)O)[C@@H](C)CC)C(C)C)[C@@H](C)O)NC(=O)[C@H]([C@@H](C)O)NC(=O)CNC(=O)[C@H](Cc2ccccc2)NC(=O)[C@H](CCCNC(=N)N)NC1=O [SEQ ID NO: 50] | – | 87 | 65
